Test results as given in PubChem BioAssay (NCI).
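Tested at 5 concentrations; 48 h exposure; 96-well plates; endpoints linearly interpolated, else capped at highest concentration. At the GI50, growth is halved. TGI: total growth inhibition.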

Key:
Experiment in all cases: growth of human tumour cells (NCI), 48 h
NCI-H23 lung = tested on: NCI-H23 lung
EKVX NSCLC = tested on: EKVX NSCLC
U251 CNS = tested on: U251 CNS
MCF7 breast = tested on: MCF7 breast
HCC-2998 colon = tested on: HCC-2998 colon
RXF 393 renal = tested on: RXF 393 renal
SF-295 CNS = tested on: SF-295 CNS
COLO 205 colon = tested on: COLO 205 colon
HCT-15 colon = tested on: HCT-15 colon
SNB-75 CNS = tested on: SNB-75 CNS

Row | Compound | TGI (NCI-H23 lung) [µM] | TGI (EKVX NSCLC) [µM] | TGI (U251 CNS) [µM] | TGI (MCF7 breast) [µM] | TGI (HCC-2998 colon) [µM] | TGI (RXF 393 renal) [µM] | TGI (SF-295 CNS) [µM] | TGI (COLO 205 colon) [µM] | TGI (HCT-15 colon) [µM] | TGI (SNB-75 CNS) [µM] | GI50 (EKVX NSCLC) [µM] | GI50 (U251 CNS) [µM] | GI50 (MCF7 breast) [µM] | GI50 (RXF 393 renal) [µM] | GI50 (SF-295 CNS) [µM]
1 | Nc1ncnc2c1nnn2C1C=CC(CP(=O)(O)O)C1 (stereo unspecified) | > 100 | > 100 | > 100 | > 100 | > 100 | > 100 | > 100 | > 100 | > 100 | – | – | – | – | – | –
2 | COC1OC(C)C(NC(=O)OCC(Cl)(Cl)Cl)C2OC(C)(C)OC12 (stereo unspecified) | > 100 | > 100 | > 100 | > 100 | > 100 | > 100 | > 100 | > 100 | > 100 | – | – | – | – | – | –
3 | O=C(COc1ccc(OCC(=O)N/N=C/c2ccc(-c3ccc(Cl)cc3Cl)o2)c(Cl)c1)N/N=C/c1ccc(-c2ccc(Cl)cc2Cl)o1 | > 100 | 89.5 | > 100 | > 100 | > 100 | 81.2 | > 100 | > 100 | > 100 | – | – | – | – | – | –
4 | O=[N+]([O-])c1cccc(C2=NN(c3ccccc3)C3c4cc(Br)ccc4OCC23)c1 (stereo unspecified) | > 100 | > 100 | > 100 | – | > 100 | > 100 | > 100 | > 100 | – | > 100 | – | – | – | – | –
5 | COc1cc2nc(-c3ccc(Cl)cc3)cc(OCCCN3CCOCC3)c2cc1OC | – | > 100 | > 100 | > 100 | – | 3.79 | 2.84 | – | – | – | 1.73 | 1.92 | 2.49 | 1.12 | 1.08
6 | CC(C)C(Br)CCC1=CCC(Br)(Br)C1 (stereo unspecified) | 21.5 | 32.5 | 28.8 | 23.9 | 28.1 | 29 | 33.4 | 29.6 | – | 23.3 | – | – | – | – | –
7 | COc1cc(C)c(CC/C(C)=C/Cc2cc(O)ccc2O)c(C)c1C | > 25 | > 25 | > 25 | – | > 25 | > 25 | > 25 | > 25 | > 25 | > 25 | – | – | – | – | –
8 | Cc1ccccc1-c1nc2c(N)nc(N)nc2nc1N | > 100 | > 100 | > 100 | > 100 | > 100 | – | > 100 | > 100 | > 100 | > 100 | – | – | – | – | –
9 | Cc1c(N2CCOCC2)nc2ccc(Cl)cc2c1-c1ccccc1 | > 100 | > 100 | > 100 | – | > 100 | > 100 | > 100 | > 100 | > 100 | > 100 | – | – | – | – | –
10 | Cc1nc(N)c(N2CCN(C#N)CC2)c(=O)[nH]1 | > 100 | > 100 | > 100 | > 100 | > 100 | – | > 100 | > 100 | > 100 | > 100 | – | – | – | – | –
11 | C[C@]12CCC3[C@@H](CCC45OC4C(=O)CC[C@]35C)C1Cc1cnn(-c3ccc(F)cc3)c1N2 (stereo partly specified) | 54.4 | > 100 | 98 | – | – | 87.2 | > 100 | > 100 | 33.9 | > 100 | – | – | – | – | –
12 | CC1=NN(C(=O)Cc2ccccc2)C(=O)/C1=C\c1ccc(O)cc1 | > 100 | > 100 | > 100 | – | > 100 | > 100 | > 100 | > 100 | > 100 | – | – | – | – | – | –
